Usually MIC stands for the lowest concentration found to suppress growth. What is called IC50 is the concentration that inhibits the measured activity by half.

The test system of one series is Mtb. The settings on record: cited from earlier work.
Another series relates to VERO cell line. It counts as cell-based. As to conditions: for cytotoxicity: MTT method, VERO cell line. The method, then: First, a VERO cell line suspension was prepared and distributed into each of the 96 wells of the culture plate, which was then incubated for 48 h to allow the cells to adhere. After this period, the suspension medium was discarded, and the cells were exposed to the substances under study, leaving them in the wells for a period of between 24 and 48 h. After this, the substance was discarded, and the cells were washed with a buffer, with MTT being added, followed by a 3 h incubation. After this period, the MTT was discarded, and Dimethyl sulfoxide (DMSO) was added to solubilize the formazan crystals generated. Finally, the absorbance of each well of the plate was obtained using a microplate spectrophotometer. The absorbance was quantified based on the readings that the equipment makes, based on the different intensities of the purple color in the wells of the plate; the more purple the well, the more viable cells there are.
In general terms: Formazan colour is commonly taken as a measure of viable cells.

Series [1] deals with Mtb strain H37Rv ATCC 27294. The series can be described thus: Microplate Alamar Blue Assay (MABA), susceptible strain. It counts as cell-based. The settings on record: Mycobacterium tuberculosis. On the technique in general: Resazurin is reduced to fluorescent resorufin, in cell work by metabolically active cells.
In a further series the target is protein kinase B (PknB). The settings on record: cited from earlier work.
The mark [2] stands for this setting: Mtb H37Rv, strain sensitive to all first- and second-line drugs, MABA, triplicate, read-out: MIC.
[3] abbreviates: as quoted in sections 2.2 and 2.3, strain not stated, read-out: MIC (antimycobacterial activity).

In brackets after ≈: the same amount, converted by molar mass. Read-outs that look alike come from different tables or passages of the source.

As to `C=CCC1[Se]c2ccccc2C1=O` (centres unmarked) [Compound 1], the MIC in the series with Mtb (anti-TB activity) was 12.5 µg/mL (≈ 52.7 µM). On to `C/C(=N/N=C1/NC(=O)CS1)c1ccc(-c2ccccc2)cc1` [Compound 2], for which the minimum inhibitory concentration (MIC) in the series on Mtb (anti-TB activity) is on record as 12.5 µg/mL (≈ 40.4 µM). As to `O=C1NC(c2ccc(OCc3cn(-c4ccc(F)cc4F)nn3)cc2)Nc2ccccc21` (centres unmarked) [Compound 4], in the series with Mtb (anti-TB action), the MIC was 0.78 µg/mL (≈ 1.8 µM). `O=C1NC(c2ccc(OCc3cn(-c4ccc(F)c(F)c4)nn3)cc2)Nc2ccccc21` (centres unmarked) [Compound 5]: the minimal inhibitory concentration (MIC) in the series on Mtb (anti-TB action) was 3.12 µg/mL (≈ 7.2 µM).

Turning to `CC1=C(Cn2cc(C[Se]c3ccccc3)nn2)C(=O)c2ccccc2C1=O` [Compound 9a, 2-methyl-3-((4-((phenylselanyl)methyl)-1H-1,2,3-triazolyl)methyl)naphthalene-1,4-dione], the cytotoxicity result in the series with VERO cell line is “minimal cytotoxicity”. Further, the “toxicity at concentrations of up to 100 µg/mL” value (“toxicity at concentrations” below) in the series with VERO cell line is recorded as “non-toxic”. In addition, the MIC in series [1] (setting [2]) was 6.23 µg/mL (≈ 14.8 µM); in series [1] (setting [3]), 6.76 µg/mL (≈ 16 µM).

Turning to `CC1=C(Cn2cc(C[Se]c3ccc(Cl)cc3)nn2)C(=O)c2ccccc2C1=O` [Compound 9b, 2-((4-(((4-chlorophenyl)selanyl)methyl)-1H-1,2,3-triazolyl)methyl)-3-methylnaphthalene-1,4-dione], in the series on VERO cell line, the cytotoxicity entry is on record as “minimal cytotoxicity”. Besides, the “toxicity at concentrations” value with VERO cell line was “non-toxic”. The MIC in series [1] (setting [2]) and in series [1] (setting [3]) was 3.2 µg/mL (≈ 7.01 µM) each time. Regarding `CC1=C(Cn2cc(C[Se]c3cccc(C(F)(F)F)c3)nn2)C(=O)c2ccccc2C1=O` [Compound 9c], in series [1] (setting [2]), the MIC was ≤ 49.9 µg/mL.

For the compound `CC1=C(Cn2cc(C[Se]c3c(C)cc(C)cc3C)nn2)C(=O)c2ccccc2C1=O` [Compound 9d, 2-((4-((2,4,6-trimethyl-phenylselanyl)methyl)-1H-1,2,3-triazolyl)methyl)-3-methylnaphthalene-1,4-dione], in series [1] (setting [2]), the MIC was > 99.9 µg/mL.

Take `CC1=C(Cn2cc(C[Se]c3ccc4ccccc4c3)nn2)C(=O)c2ccccc2C1=O` [Compound 9e, 2-methyl-3-((4-((naphthalenylselanyl)methyl)-1H-1,2,3-triazolyl)methyl)naphthalene-1,4-dione]: the MIC in series [1] (setting [2]) is 99.9 µg/mL (≈ 211 µM). As to `CC1=C(C(C)n2cc(C[Se]c3ccccc3)nn2)C(=O)c2ccccc2C1=O` (centres unmarked) [Compound 9f, 2-methyl-3-(1-(4-((phenylselanyl)methyl)-1H-1,2,3-triazolyl)ethyl)naphthalene-1,4-dione], the MIC is 6.23 µg/mL (≈ 14.3 µM) in series [1] (setting [2]) and > 43.6 µg/mL in series [1] (setting [3]). As for `CC1=C(C(c2ccccc2)n2cc(C[Se]c3ccccc3)nn2)C(=O)c2ccccc2C1=O` (centres unmarked) [Compound 9g, 2-methyl-3-(phenyl(4-((phenylselanyl)methyl)-1H-1,2,3-triazolyl)methyl)naphthalene-1,4-dione], in the series on VERO cell line, the cytotoxicity entry is “minimal cytotoxicity” and the “toxicity at concentrations” value is “non-toxic”. Moreover, the MIC in series [1] (setting [2]) was found to be 12.5 µg/mL (≈ 25.1 µM). In series [1] (setting [3]), the MIC came out at 3.12 µg/mL (≈ 6.26 µM). On to `CC1=C(C(c2ccc(C)cc2)n2cc(C[Se]c3ccccc3)nn2)C(=O)c2ccccc2C1=O` (centres unmarked) [Compound 9h, 2-methyl-3-((4-((phenylselanyl)methyl)-1H-1,2,3-triazolyl)(p-methylphenyl)methyl) naphthalene-1,4-dione], for which, in the series on VERO cell line, the cytotoxicity entry is “minimal cytotoxicity” and the “toxicity at concentrations” value is “non-toxic”. In addition, in series [1] (setting [2]), the MIC amounted to 24.9 µg/mL (≈ 48.7 µM). Consider `CC1=C(Cn2cc(CSc3ccccc3)nn2)C(=O)c2ccccc2C1=O` [Compound 10a, 2-methyl-3-((4-((phenylthiol)methyl)-1H-1,2,3-triazolyl)methyl)naphthalene-1,4-dione], for which the MIC in series [1] (setting [2]) turned out to be 100 µg/mL (≈ 267 µM). Same read-out and setting: under `CC1=C(Cn2cc(CSc3ccc(Cl)cc3)nn2)C(=O)c2ccccc2C1=O` [Compound 10b, 2-((4-(((4-chlorophenyl)thiol)methyl)-1H-1,2,3-triazolyl)methyl)-3-methylnaphthalene-1,4-dione] stands > 100 µg/mL; under `CC1=C(Cn2cc(CSc3ccc(C)cc3)nn2)C(=O)c2ccccc2C1=O` [Compound 10c, 2-methyl-3-((4-((p-methylphenylthiol)methyl)-1H-1,2,3-triazolyl)methyl)naphthalene-1,4-dione], > 100 µg/mL; under `CC1=C(Cn2cc(CSc3ccccc3C)nn2)C(=O)c2ccccc2C1=O` [Compound 10d, 2-methyl-3-((4-((o-methylphenylthiol)methyl)-1H-1,2,3-triazolyl)methyl)naphthalene-1,4-dione], > 100 µg/mL. For the compound `CC1=C(Cn2cc(CSCc3ccco3)nn2)C(=O)c2ccccc2C1=O` [Compound 10e, 2-((4-(((furan-2-ylmethyl)thiol)methyl)-1H-1,2,3-triazolyl)methyl)-3-methylnaphthalene-1,4-dione], the MIC in series [1] (setting [2]) was > 100 µg/mL. Same read-out and setting: under `CC1=C(C(C)n2cc(CSc3ccccc3)nn2)C(=O)c2ccccc2C1=O` (centres unmarked) [Compound 10f, 2-methyl-3-(1-(4-((phenylthiol)methyl)-1H-1,2,3-triazolyl)ethyl)naphthalene-1,4-dione] stands 100 µg/mL (≈ 257 µM); under `CC1=C(C(c2ccccc2)n2cc(CSc3ccccc3)nn2)C(=O)c2ccccc2C1=O` (centres unmarked) [Compound 10g, 2-methyl-3-(phenyl(4-((phenylthiol)methyl)-1H-1,2,3-triazolyl)methyl)naphthalene-1,4-dione], > 100 µg/mL; under `CC1=C(C(c2ccc(C)cc2)n2cc(CSc3ccccc3)nn2)C(=O)c2ccccc2C1=O` (centres unmarked) [Compound 10h, 2-methyl-3-((4-((phenylthiol)methyl)-1H-1,2,3-triazolyl)(p-methylphenyl)methyl)naphthalene-1,4-dione], > 100 µg/mL. On the same count and under the same terms, next, `NNC(=O)c1ccncc1` [INH, isoniazid, reference compound]: 0.12 µg/mL (≈ 0.875 µM); `NC(=O)c1cnccn1` [PZA, pyrazinamide, reference compound]: 100 µg/mL (≈ 813 µM). Regarding `O=C1c2c(O)ccc(O)c2C(=O)c2c(NCCNCCO)ccc(NCCNCCO)c21` [co-crystallized ligand, 1,4-dihydroxy-5,8-bis({2-[(2-hydroxyethyl)amino]ethyl}amino)-9,10-anthracenedione], on protein kinase B (PknB), the 50% inhibitory concentration (IC50) is 800 nM.

The record behind these values is paper PMC12195982, “Design, Synthesis, and In Vitro Evaluation of 4-(Arylchalcogenyl)methyl)-1H-1,2,3-triazol-1-yl-menadione: Exploring Their Potential Against Tuberculosis” (Pharmaceuticals, 2025).
